Measured values taken from patent US20060052404A1, “Pharmaceutical formulations comprising substituted xanthine compounds” (priority 2001, published 2006).

Assays:
[1] = system: human epithelial cell line expressing the CFTR-ΔF508 mutation; settings: cells having the CFTR-ΔF508 mutation; cited from earlier work
[2] = CPX absorption profile in rats, water vs corn oil formulation, single oral gavage; assay type: in vivo; settings: rat, 1.4 mg/kg single oral gavage, during the course of the experiment
Experimental: Experimental—This study was designed to determine the pharmacokinetics of CPX bioavailability in blood plasma following a single oral administration by oral gavage to male Sprague-Dawley rats. The CPX compound was suspended in either a corn oil or water formulation and administered once via oral gavage at 10 ml/kg of rat weight to two groups of male Sprague-Dawley rats.
The rats were not fasted prior to blood collection. Approximately 0.4 ml of whole blood was collected from each animal into heparinized tubes via puncture of the orbital sinus under 70% CO2/30% O2 anesthesia. Approximately 0.2 ml of plasma was separated by centrifugation and analyzed for CPX concentration using high performance liquid chromatography (HPLC) with mass spectrometric detection. Following the completion of blood collection, all surviving animals were euthanized by carbon dioxide overdose.
Rat plasma CPX concentration as a function of time (in hours) using the two formulations was measured. Each rat in this experiment (n=10) received a 1.4 mg/kg CPX dose, which was equivalent to a 100 mg dose. Ten rats were used at each time point to generate a mean CPX concentration value.

[3] = CPX absorption profiles of four suspension formulations in dogs, single oral dose; assay type: in vivo, male Beagle dogs; settings: dog, 30 mg/kg oral
Experimental: Experimental—This study was designed to determine the relative bioavailability of a single oral CPX dose when administered by gavage to male Beagle dogs. The CPX dosages was administered in a single 30 mg/kg oral dose in four different suspension formulations. These suspension formulations were: • 1) xanthan gum (homogenized), • 2) sodium carboxymethylcellulose [NaCMC] (homogenized), • 3) sodium carboxymethylcellulose [NaCMC] (non-homogenized), and • 4) corn oil (homogenized).
Each formulation contained CPX at a nominal concentration of 60 mg/gram of suspension. […]
Whole blood samples were collected (approx. 3 ml/sample) by jugular venipuncture into sodium heparin-containing collection tubes. […] The whole blood was centrifuged to isolate plasma, and concentrations of CPX in the plasma at these time intervals were determined using high performance liquid chromatography (HPLC) with mass spectrometric detection, with a lower quantitation limit of 1 ng/ml.
The following pharmacokinetic parameters were determined for each experimental CPX formulation: • Cmax—maximum analyte concentration in the plasma, ng/ml • Tmax—time of maximum analyte concentration in the plasma • T1/2—terminal half-life of the drug • AUClast—area under the curve (AUC) from time 0 to the last measurable concentration. […] Expressed as ng·h/ml AUC(0∞)—area under the curve from time 0 to infinity (also written AUCinf or AUC∞)

[4] = Solubility of CPX in solvents tested; assay type: physicochemical; settings: any of the solvents tested, despite use of co-solvents
Excerpt: This EXAMPLE describes the CPX formulations used in the present invention. Adequate solubility of CPX was unattainable in any of the solvents tested, even despite the use of co-solvents. This insolubility necessitated the use of the suspension and capsule formulations, as described below. One formulation was left non-homogenized to study the effect of homogenization on bioavailability.

[5] = Mutagenicity and adverse side effects of oral doses in animal model systems; assay type: in vivo; settings: oral doses to rat, guinea pig, mouse or dog model systems
[6] = Adverse side effects of oral doses in human subjects; assay type: in vivo; settings: oral doses to human subjects
[7] = system: cell derived from a cystic fibrosis patient; settings: cited from earlier work
[8] = biological target: isolated CFTR channels (Homo sapiens, UniProt P13569); settings: in vitro lipid bilayers; cited from earlier work
[9] = biological target: NBF-1 region of CFTR (Homo sapiens, UniProt P13569); settings: cited from earlier work
[10] = biological target: CFTR-ΔF508 NBF-1 (Homo sapiens, UniProt P13569, DEL508-508); settings: cited from earlier work
[11] = biological target: CFTR-ΔF508 (Homo sapiens, UniProt P13569, DEL508-508); settings: cited from earlier work
[12] = biological target: T1, A1 adenosine receptor (Homo sapiens, UniProt P30542); settings: cited from earlier work
T1 sequence (P30542 1-326): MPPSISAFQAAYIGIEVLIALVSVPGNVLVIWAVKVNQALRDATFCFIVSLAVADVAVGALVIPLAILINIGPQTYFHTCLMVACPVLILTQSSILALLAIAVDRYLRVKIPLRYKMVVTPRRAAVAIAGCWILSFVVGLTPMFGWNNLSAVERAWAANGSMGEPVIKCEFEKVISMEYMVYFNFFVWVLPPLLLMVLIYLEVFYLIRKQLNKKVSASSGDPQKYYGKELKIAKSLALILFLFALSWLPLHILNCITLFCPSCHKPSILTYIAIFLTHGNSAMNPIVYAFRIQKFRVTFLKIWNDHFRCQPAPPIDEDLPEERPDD

Chain of isolated CFTR channels (P13569 whole entry): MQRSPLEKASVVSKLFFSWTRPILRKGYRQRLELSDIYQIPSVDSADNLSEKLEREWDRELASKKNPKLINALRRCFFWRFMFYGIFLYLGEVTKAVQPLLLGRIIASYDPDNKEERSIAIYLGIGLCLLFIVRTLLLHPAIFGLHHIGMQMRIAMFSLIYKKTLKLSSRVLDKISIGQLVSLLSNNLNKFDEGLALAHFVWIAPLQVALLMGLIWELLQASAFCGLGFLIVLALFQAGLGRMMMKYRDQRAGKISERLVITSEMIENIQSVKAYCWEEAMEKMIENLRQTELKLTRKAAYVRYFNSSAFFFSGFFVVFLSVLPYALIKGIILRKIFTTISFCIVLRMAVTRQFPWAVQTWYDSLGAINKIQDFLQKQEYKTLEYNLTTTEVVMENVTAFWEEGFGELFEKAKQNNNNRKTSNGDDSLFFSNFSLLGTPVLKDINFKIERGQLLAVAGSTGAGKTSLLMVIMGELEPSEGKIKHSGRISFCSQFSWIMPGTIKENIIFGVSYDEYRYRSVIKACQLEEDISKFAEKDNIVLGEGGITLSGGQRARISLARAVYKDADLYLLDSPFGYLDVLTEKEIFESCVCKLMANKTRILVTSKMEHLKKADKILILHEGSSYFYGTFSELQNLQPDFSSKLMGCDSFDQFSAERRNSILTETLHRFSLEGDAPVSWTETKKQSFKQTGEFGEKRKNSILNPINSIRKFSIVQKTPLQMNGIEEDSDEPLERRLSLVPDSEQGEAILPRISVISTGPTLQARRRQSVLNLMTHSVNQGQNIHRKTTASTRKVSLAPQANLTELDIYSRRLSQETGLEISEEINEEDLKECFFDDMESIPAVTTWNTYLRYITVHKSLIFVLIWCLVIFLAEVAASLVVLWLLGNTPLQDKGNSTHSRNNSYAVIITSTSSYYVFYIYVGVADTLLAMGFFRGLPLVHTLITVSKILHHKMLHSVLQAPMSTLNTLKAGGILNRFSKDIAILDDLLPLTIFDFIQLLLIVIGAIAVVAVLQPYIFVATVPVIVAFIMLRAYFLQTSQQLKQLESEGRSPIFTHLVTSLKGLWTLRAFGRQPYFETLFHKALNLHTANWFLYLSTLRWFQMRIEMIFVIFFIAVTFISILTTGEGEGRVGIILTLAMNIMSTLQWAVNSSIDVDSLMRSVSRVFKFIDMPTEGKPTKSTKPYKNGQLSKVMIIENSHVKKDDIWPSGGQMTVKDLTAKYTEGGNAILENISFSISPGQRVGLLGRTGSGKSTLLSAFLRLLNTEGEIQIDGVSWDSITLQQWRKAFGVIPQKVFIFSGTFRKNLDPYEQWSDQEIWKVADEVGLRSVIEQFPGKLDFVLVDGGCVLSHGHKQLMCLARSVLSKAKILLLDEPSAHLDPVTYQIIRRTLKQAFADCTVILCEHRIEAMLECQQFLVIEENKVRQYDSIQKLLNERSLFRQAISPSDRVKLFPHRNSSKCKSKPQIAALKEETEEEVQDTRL
Chain of CFTR-ΔF508 (P13569 with tags, fused parts or gaps DEL508-508): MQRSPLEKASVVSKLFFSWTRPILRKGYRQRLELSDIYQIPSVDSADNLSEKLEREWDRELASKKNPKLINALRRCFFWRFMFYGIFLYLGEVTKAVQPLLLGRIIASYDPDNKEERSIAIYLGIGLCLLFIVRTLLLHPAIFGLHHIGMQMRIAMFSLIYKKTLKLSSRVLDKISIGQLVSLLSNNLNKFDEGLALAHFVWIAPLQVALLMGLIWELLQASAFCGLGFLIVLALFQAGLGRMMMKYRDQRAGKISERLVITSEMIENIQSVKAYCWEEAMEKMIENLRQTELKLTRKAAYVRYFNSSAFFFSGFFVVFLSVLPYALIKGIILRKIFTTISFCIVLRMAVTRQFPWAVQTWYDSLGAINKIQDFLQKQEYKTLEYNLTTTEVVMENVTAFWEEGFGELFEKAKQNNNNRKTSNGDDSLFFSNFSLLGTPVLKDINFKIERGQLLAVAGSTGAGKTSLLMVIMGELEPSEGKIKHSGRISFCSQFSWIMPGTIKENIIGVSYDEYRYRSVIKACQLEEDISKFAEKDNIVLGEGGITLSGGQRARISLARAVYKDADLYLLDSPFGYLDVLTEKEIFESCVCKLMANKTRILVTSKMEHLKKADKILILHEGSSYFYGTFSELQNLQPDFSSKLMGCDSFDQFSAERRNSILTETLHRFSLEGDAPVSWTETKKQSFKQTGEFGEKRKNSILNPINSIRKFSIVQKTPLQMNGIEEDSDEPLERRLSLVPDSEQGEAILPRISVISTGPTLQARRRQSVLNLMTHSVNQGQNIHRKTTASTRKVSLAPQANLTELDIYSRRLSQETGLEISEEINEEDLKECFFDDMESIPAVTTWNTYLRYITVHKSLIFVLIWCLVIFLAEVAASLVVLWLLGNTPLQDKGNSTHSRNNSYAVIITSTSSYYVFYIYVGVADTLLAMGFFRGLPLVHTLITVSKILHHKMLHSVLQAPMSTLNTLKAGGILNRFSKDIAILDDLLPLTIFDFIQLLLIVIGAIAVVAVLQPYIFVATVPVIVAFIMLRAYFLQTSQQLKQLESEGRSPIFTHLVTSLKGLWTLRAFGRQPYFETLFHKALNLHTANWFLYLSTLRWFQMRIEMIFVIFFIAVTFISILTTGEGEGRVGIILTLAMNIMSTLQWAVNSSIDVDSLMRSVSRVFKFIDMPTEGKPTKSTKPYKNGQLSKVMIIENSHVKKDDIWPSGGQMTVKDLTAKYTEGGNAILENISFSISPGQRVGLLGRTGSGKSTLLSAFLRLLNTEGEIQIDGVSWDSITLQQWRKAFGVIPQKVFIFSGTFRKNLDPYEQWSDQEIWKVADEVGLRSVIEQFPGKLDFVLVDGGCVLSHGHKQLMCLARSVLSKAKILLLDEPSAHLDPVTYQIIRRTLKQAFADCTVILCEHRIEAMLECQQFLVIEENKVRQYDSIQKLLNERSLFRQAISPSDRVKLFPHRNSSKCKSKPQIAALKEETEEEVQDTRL
Chain of NBF-1 region of CFTR (P13569 423-646 limits assumed): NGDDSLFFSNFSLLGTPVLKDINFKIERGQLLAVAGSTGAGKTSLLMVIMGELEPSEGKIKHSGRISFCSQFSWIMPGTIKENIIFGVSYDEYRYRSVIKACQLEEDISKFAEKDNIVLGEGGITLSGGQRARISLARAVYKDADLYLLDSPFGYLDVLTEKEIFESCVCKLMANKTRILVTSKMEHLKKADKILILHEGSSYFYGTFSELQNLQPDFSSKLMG
Chain of CFTR-ΔF508 NBF-1 (P13569 with tags, fused parts or gaps DEL508-508 limits assumed): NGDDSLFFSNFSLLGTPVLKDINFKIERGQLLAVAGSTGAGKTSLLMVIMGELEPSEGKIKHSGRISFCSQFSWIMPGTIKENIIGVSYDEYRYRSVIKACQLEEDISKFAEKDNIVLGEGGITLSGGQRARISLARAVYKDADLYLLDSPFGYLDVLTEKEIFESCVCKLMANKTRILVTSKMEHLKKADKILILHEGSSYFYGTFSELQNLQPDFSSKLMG

## 1,3-dipropyl-7-methylcyclopenthylxanthine [DP-CPX]
[1]
  chloride efflux: activating chloride ion efflux

## Cn1c(=O)c2c(nc(C3CCCCC3)n2C)n(C)c1=O [CHC, cyclohexylcaffeine]
[1]
  chloride efflux: activating chloride ion efflux

## CCCn1c(=O)c2[nH]c(-c3ccc(OCC(=O)NCCN)cc3)nc2n(CCC)c1=O [xanthine amino congener]
[1]
  chloride efflux: activating chloride ion efflux

## C=CCn1c(=O)c2[nH]c(C3CCCCC3)nc2n(CC=C)c1=O [DAX, N,N-diallylcyclohexylxanthine]
[1]
  chloride efflux: activating chloride ion efflux

## CCCn1c(=O)c2[nH]c(C3CCCC3)nc2n(CCC)c1=O [CPX, 1,3-dipropyl-8-cyclopentylxanthine]
[2]
  mortality or signs of morbidity: no mortality or signs of morbidity
[3]
  time of measured peak concentrations of CPX in the plasma after oral dosing: ≤ 5 h
[4]
  adequate solubility: unattainable
[5]
  mutagenicity or grossly apparent adverse side effects: does not appear to display any mutagenicity or grossly apparent adverse side effects
[6]
  apparent adverse side effects: no apparent adverse side effects
[7]
  chloride efflux: activates
[8]
  activation of isolated CFTR channels: activates
[9]
  binding to the NBF-1 region of CFTR: binds
[10]
  affinity for CFTR-ΔF508 NBF-1 versus wild-type CFTR NBF-1: greater
[11]
  intracellular trafficking and maturation of CFTR-ΔF508: enhances
[12]
  A1 adenosine receptor antagonism: potent
[1]
  chloride efflux: promotes chloride efflux
